Test results: PMC3809513, “Imidazopyridazines as potent inhibitors of Plasmodium falciparum calcium-dependent protein kinase 1 (PfCDPK1): Preparation and evaluation of pyrazole linked analogues^” (Bioorganic & Medicinal Chemistry Letters, 2013)
Read-outs that look alike come from different tables or passages of the source.

Tests used:
[1] = LogD shake flask (octanol/PBS); type: physicochemical; conditions: measured log D
Protocol: LogD measurements were carried out using the shake flask method. Compound was diluted from 10 mM DMSO stock solution into an eppendorf containing equal amounts of octanol and phosphate buffered saline (PBS) to give a final concentration of 100 μM. The tubes were shaken for 12 hours, centrifuged at 10000 rpm for 10 minutes and samples taken from the octanol and PBS layers. The samples from both layers were analysed in triplicate by LC-MS/MS (Agilent Technologies G6410 series, triple quadrupole with MM-ESI ion source) using optimised multiple reaction monitoring (MRM) scans and a standard column gradient on an Acquity UPLC BEH C8 1.7 μm column, running acetonitrile and water with 0.05% Acetic Acid as the mobile phase. The ratios of areas of the peaks were used to calculate the LogD in accordance with the equation: LogD = Log10(Area-TL/Area BL)

[2] = Microsomal turnover, human liver microsomes; type: in vitro ADME; conditions: % remaining after 30 min, 1 μM compound
Protocol: Microsomal turnover data was obtained using either human liver microsomes (HLM) or mouse liver microsomes (MLM) obtained from BD Biosciences. The compounds are pre-incubated at 37 °C for 5 minutes with the microsomes and the reaction was initiated by adding an equal volume of NADPH generating solution, also obtained from BD Biosciences. The final compound concentration in the incubation is 1 μM, and the microsomal protein concentration is 0.5 mg/ml for HLM and 0.2 mg/ml for MLM. A sample is taken at t=0 and quenched with 2x volume of ice-cold methanol containing an internal standard reference compound (carbamazepine). […] The samples were centrifuged at 10000 rpm for 10 minutes and the supernatant taken for analysis in triplicate by LC-MS/MS (Agilent Technologies G6410 series, triple quadrupole with MM-ESI ion source) using optimised multiple reaction monitoring (MRM) scans and a standard column gradient on an Acquity UPLC BEH C8 1.7μm column, running acetonitrile and water with 0.05% acetic acid as the mobile phase. […] Verapamil is used as the standard compound for this assay.

PfCDPK1 = PfCDPK1 (Plasmodium falciparum, UniProt P62344); assay: PfCDPK1 enzyme inhibition; type: biochemical; conditions: for LLE: LLE = pIC50 − m Log D
PfCDPK1, sequence (P62344 whole entry): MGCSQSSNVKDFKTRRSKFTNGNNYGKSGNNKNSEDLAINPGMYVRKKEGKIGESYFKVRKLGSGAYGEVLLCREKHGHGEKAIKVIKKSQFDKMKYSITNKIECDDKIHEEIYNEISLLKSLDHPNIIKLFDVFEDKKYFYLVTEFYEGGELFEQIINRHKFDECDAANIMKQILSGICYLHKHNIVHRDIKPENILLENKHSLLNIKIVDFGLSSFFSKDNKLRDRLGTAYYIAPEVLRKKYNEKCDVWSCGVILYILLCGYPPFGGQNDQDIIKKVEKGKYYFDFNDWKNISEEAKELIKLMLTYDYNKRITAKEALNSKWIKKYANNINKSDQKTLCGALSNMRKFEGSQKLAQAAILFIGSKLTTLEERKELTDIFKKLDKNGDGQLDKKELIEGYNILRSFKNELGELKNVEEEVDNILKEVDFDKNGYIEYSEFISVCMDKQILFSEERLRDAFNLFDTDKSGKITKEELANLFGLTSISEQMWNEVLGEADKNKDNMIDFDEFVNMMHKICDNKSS

[3] = PAMPA passive permeability; type: in vitro ADME; conditions: 5 hours at room temperature
Protocol: PAMPA assays were carried out using a 96 well BD Biosciences pre-coated PAMPA plate with 0.4 μm polyvinylidene fluoride filter plate, precoated with structured layers of phospholipids. […] The compound solution was placed in the lower ‘Donor’ well of the plate and the upper ‘Acceptor’ well of the plate was filled with PBS:DMSO 98:2 buffer containing no compound following which the plates was assembled then incubated for 5 hours at room temperature. After incubation the Donor and Acceptor wells were sampled into flat UV bottomed plates and a six fold 1:2 dilution series created for each compound starting at the appropriate top concentration for each compound. The UV absorbance for these solutions was read across 230-400 nm at 1 nm intervals using a TECAN Safire II plate reader and a suitable UV wavelength chosen around the UV maximum of each compound. This was used to calculate the concentration in the Donor and Acceptor wells for each compound. The compound permeability Papp (nm s^-1) and % mass retention was then calculated for each compound in accordance with the following equations:
Ceq = [CD(t)* VD+ CA(t)*VA]/(VD+VA)
% mass retention = 1 – [CD(t)*VD + CA(t)*VA]/(C0*VD)]
A = Filter Area, VD = Donor Well Volume, VA = Acceptor Well Volume, t = incubation time (secs), CA(t) = Acceptor concentration at time t, CD(t) = Donor concentration at time t, C0 = Initial Donor concentration
No result was reported for compounds where % mass retention exceeded 50%.

P. falciparum [4] = assay: P. falciparum parasite growth assay (FACS, hydroethidine); type: cell-based, Plasmodium falciparum; conditions: in vitro parasite growth, compounds added 24 h post-invasion, cells recovered 48 h later; for EC50: Plasmodium falciparum, read-out: Pf EC50
Protocol: [12] P. falciparum EC50 values were measured using an in vitro model of malaria parasite growth. Compounds were diluted into 2% DMSO and added to parasites 24 h post-invasion in a 96-well plate and incubated under static conditions. Cells were recovered 48 h later and processed for FACS analysis using hydroethidine to stain parasite DNA. Data was acquired using a Guava easyCyte Plus flow cytometer with ExpressPro software. Growth inhibition was calculated using the following formula: % growth inhibition = (1 − [parasitaemia of culture/parasitaemia of control culture]) × 100.

[5] = Microsomal turnover, mouse liver microsomes; type: in vitro ADME; conditions: % remaining after 30 min, 1 μM compound
Protocol: Microsomal turnover data was obtained using either human liver microsomes (HLM) or mouse liver microsomes (MLM) obtained from BD Biosciences. The compounds are pre-incubated at 37 °C for 5 minutes with the microsomes and the reaction was initiated by adding an equal volume of NADPH generating solution, also obtained from BD Biosciences. The final compound concentration in the incubation is 1 μM, and the microsomal protein concentration is 0.5 mg/ml for HLM and 0.2 mg/ml for MLM. A sample is taken at t=0 and quenched with 2x volume of ice-cold methanol containing an internal standard reference compound (carbamazepine). The reaction is agitated at 37 °C for 40 minutes (HLM) and 30 minutes (MLM) when a further sample was taken and quenched in an identical fashion. The samples were centrifuged at 10000 rpm for 10 minutes and the supernatant taken for analysis in triplicate by LC-MS/MS (Agilent Technologies G6410 series, triple quadrupole with MM-ESI ion source) using optimised multiple reaction monitoring (MRM) scans and a standard column gradient on an Acquity UPLC BEH C8 1.7μm column, running acetonitrile and water with 0.05% acetic acid as the mobile phase. The % turnover is obtained by calculating the percentage difference of the peak areas, normalised to the internal standard, at t=0 and t=40 (for human) or t=30 (for mouse). Verapamil is used as the standard compound for this assay.

[6] = molecular target: 73-member human kinase panel; assay: Kinase selectivity profiling against human kinase panel; type: biochemical; conditions: 73-member human kinase panel at 1 μM concentration; green <50%, orange 50–80%, red >80% inhibition in Figure 2
Source text: They also display key ADME properties which serve to complement analogues such as 2, where a 6-membered aryl or heteroaryl ring linker had been used (Table 5). As expected, the pyrazole linker has contributed to lowering log D in these new analogues, and perhaps more importantly has promoted a significant increase in ligand lipophilic efficiency (LLE)[22] as compared to compounds such as 2. This parameter is well-known to offer a useful guide to potency and lipophilicity during the progression of chemical series from hits towards leads. In addition, we observed promising kinase selectivity profiles for key examples on screening against a human kinase panel at 1 μM concentration,[23] as shown in Figure 2. The aryl pyrazoles described here thus represent a useful additional possibility for progressing towards alternative early lead compounds with good development characteristics.
[23] Kinase selectivity profiling was carried out by the National Centre for Protein Kinase Profiling at the MRC Protein Phosphorylation Unit (University of Dundee, UK).

[7] = parameters: method as in PMID 23570789; conditions: % remaining after 30 min incubation with mouse liver microsomes; cited from earlier work
P. falciparum [8] = system: P. falciparum; parameters: method as in PMID 23570789; conditions: reference compound 2; read-out: Pf EC50; cited from earlier work
[9] = parameters: method as in PMID 23570789; conditions: % remaining after 30 min incubation with human liver microsomes; cited from earlier work

| logD at 12 h, 100 µM [1] | HLM % rem [2] [%] | IC50 (PfCDPK1) [µM] | Papp at 5 h, up to 200 µM [3] [×10⁻⁶ cm/s] | EC50 (P. falciparum [4]) [µM] | MLM % rem [5] [%] | LLE (PfCDPK1) | LE (ligand efficiency) (PfCDPK1; from PfCDPK1 potency) | Pf EC50 (P. falciparum [4]) | Structure (SMILES) | Kinases inhibited [6] | MLM % rem [7] [%] | EC50 (P. falciparum [8]) [µM] | HLM % rem [9] [%] |
| --- | --- | --- | --- | --- | --- | --- | --- | --- | --- | --- | --- | --- | --- |
| 2.2 | 66 | 0.031 | 0.05 | 0.366 | 51 |  |  |  | CN1CCC(Nc2ccc3ncc(-c4cnn(-c5cnccn5)c4)n3n2)CC1 [Compound 26] |  |  |  |  |
| 1.8 | 81 | 0.043 | 2.3 | 0.985 | 74 | 4.5 | 0.37 | sub-micromolar | c1ccc(-n2cc(-c3cnc4ccc(NC5CCNCC5)nn34)cn2)cc1 [Compound 12] | PRK2, PKD1, MSK1, MNK1, SmMLCK, CHK1, CHK2, Aurora B, NUAK1, PIM1, GCK, MINK1, MLK1, MLK3, IRAK4, SRC, LCK, YES1, EPH-A2, FGF-R1, HER4, VEG-FR |  |  |  |
| 2.6 | 61 | 0.184 | 21.4 |  | 38 |  |  |  | CN1CCC(Oc2ccc3ncc(-c4cnn(-c5ccc(F)cc5)c4)n3n2)CC1 [Compound 31] |  |  |  |  |
| 1.9 | 79 | 0.854 |  |  | 59 |  |  |  | CN1CCC(Nc2ccc3ncc(-c4cnn(-c5ccc(C#N)cc5)c4)n3n2)CC1 [Compound 36] | RSK1, ROCK2, PRK2, MNK1, MNK2, SmMLCK, PHK, CHK1, MARK3, BRSK2, MELK, NUAK1, CK1, CK2, DRYK1A, PIM1, PAK4, MST2, GCK, MINK1, MLK1, MLK3, IRAK4, SRC, YES1, BTK, EPH-A2, HER4, VEG-FR |  |  |  |
|  |  |  |  |  |  |  |  |  | Clc1ccc2ncc(Br)n2n1 [Compound 27] | RSK1, PRK2, CHK1, MELK, NUAK 1, PIM1, MST2, GCK, MINK1, MLK1, MLK3, IRAK4, SRC, LCK, CSK, YES1, BTK, EPH-A2, EPH-B3, HER4, VEG-FR |  |  |  |
|  |  |  |  |  |  |  |  |  | CC(C)CCNc1ccc(-c2cnc3ccc(NC4CCN(C)CC4)nn23)cn1 [Compound 2] |  | 85 | 0.4 | 63 |
| 2 |  | 0.486 |  |  |  |  |  |  | CN1CCC(Nc2ccc3ncc(-c4cnn(-c5ncc(F)cn5)c4)n3n2)CC1 [Compound 25] |  |  |  |  |
| 2.7 | 70 | 0.189 |  | 0.255 | 59 |  |  |  | CN1CCC(Nc2ccc3ncc(-c4cnn(-c5cccc(C#N)c5)c4)n3n2)CC1 [Compound 37] |  |  |  |  |
| 3.4 |  | 0.076 |  | 0.567 |  |  |  |  | CN1CCC(Nc2ccc3ncc(-c4cnn(-c5ccccc5F)c4)n3n2)CC1 [Compound 16] |  |  |  |  |
|  |  | 3.61 |  |  |  |  |  |  | Cc1nn(-c2ccccc2)cc1-c1cnc2ccc(NC3CCN(C)CC3)nn12 [Compound 11] |  |  |  |  |
| 2.5 | 55 | 0.378 |  | 3.54 | 33 |  |  |  | CN1CCCC(c2ccn3ncc(-c4cnn(-c5ccc(F)cc5)c4)c3n2)C1 (centres unmarked) [Compound 35] |  |  |  |  |
| 1.9 | 80 | 0.056 | 4.3 | 0.262 | 84 | 5.3 |  |  | N[C@H]1CC[C@H](Nc2ccc3ncc(-c4cnn(-c5ccc(F)cc5)c4)n3n2)CC1 [Compound 29] |  |  |  |  |
| 2.8 | 42 | 0.129 | 10.4 | 0.373 | 66 |  |  |  | Fc1ccc(-n2cc(-c3cnc4ccc(N[C@H]5CC[C@H](N6CCCC6)CC5)nn34)cn2)cc1 [Compound 30] |  |  |  |  |
| 1.4 | 80 | 0.176 | 21.7 | 3.83 | 56 |  |  |  | Fc1ccc(-n2cc(-c3cnn4ccc(C5CCCNC5)nc34)cn2)cc1 (centres unmarked) [Compound 34] |  |  |  |  |
